Legend:
Homo sapiens [1] = organism: Homo sapiens; assay: Selectivity ratio of EC50 for TGR5 S270A mutant (unknown origin) to EC50 for wild type TGR5 (unknown origin)
Homo sapiens [2] = organism: Homo sapiens; assay: Selectivity ratio of EC50 for TGR5 Y89F mutant (unknown origin) to EC50 for wild type TGR5 (unknown origin)
Homo sapiens [3] = organism: Homo sapiens; assay: Selectivity ratio of EC50 for TGR5 Y89A mutant (unknown origin) to EC50 for wild type TGR5 (unknown origin)
[4] = biological target: T1, G-protein coupled bile acid receptor 1 (Homo sapiens, UniProt Q8TDU6); assay: Agonist activity at wild type TGR5 (unknown origin)
T1 sequence (Q8TDU6 whole entry): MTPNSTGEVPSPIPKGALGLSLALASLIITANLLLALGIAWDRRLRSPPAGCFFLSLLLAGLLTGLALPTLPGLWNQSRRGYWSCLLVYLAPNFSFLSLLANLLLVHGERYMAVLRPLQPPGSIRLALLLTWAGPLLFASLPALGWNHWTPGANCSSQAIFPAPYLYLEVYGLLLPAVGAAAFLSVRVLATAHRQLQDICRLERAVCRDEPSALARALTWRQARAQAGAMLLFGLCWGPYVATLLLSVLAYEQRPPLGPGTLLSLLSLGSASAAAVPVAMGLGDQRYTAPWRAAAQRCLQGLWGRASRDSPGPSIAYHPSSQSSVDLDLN

Homo sapiens [5] = organism: Homo sapiens; assay: Selectivity ratio of EC50 for TGR5 N93D mutant (unknown origin) to EC50 for wild type TGR5 (unknown origin)

## CC[C@H]1[C@@H](O)[C@@H]2[C@H](CC[C@]3(C)[C@@H]([C@H](C)CCN)CC[C@@H]23)[C@@]2(C)CC[C@@H](O)C[C@@H]12
Homo sapiens [1]
  Ratio EC50: > 1000
Homo sapiens [2]
  Ratio EC50: 1.7
Homo sapiens [3]
  Ratio EC50: > 1000
[4]
  EC50: 1.32 µM
Homo sapiens [5]
  Ratio EC50: > 1000

Source: ChEMBL document CHEMBL3097990, “Probing the Binding Site of Bile Acids in TGR5” (ACS Med Chem Lett, 2013)
